Tests used:
Type in all cases: in vivo
[1] = system: ragweed (common ragweed, Ambrosia elatior); assay: Test A postemergence, visual plant response rating; details: for Ragweed plant response rating (0 to 100 scale): 500 g ai/ha, postemergence, 0 is no effect, 100 is complete control; for Ragweed plant response rating: Postemergence, 125 g ai/ha, 0 to 100 scale (0 no effect, 100 complete control)
How it was run: (§1)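 Greenhouse evaluation, approx. 10 days post-spray. Soil: loam + sand. Postemergence stage: 1–2 leaves, height 2–10 cm. Vehicle: non-phytotoxic solvent blend with surfactant. Score: visual injury on a 0 (no effect) to 100 (complete control) scale.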

kochia (Kochia scoparia) [2] = assay: Test A postemergence, visual plant response rating; details: for Kochia plant response rating (0 to 100 scale): 500 g ai/ha, postemergence, 0 is no effect, 100 is complete control; for Kochia plant response rating: Postemergence, 125 g ai/ha, 0 to 100 scale (0 no effect, 100 complete control)
How it was run: as §1

[3] = system: foxtail, giant (giant foxtail, Setaria faberii); assay: Test A postemergence, visual plant response rating; details: for Foxtail, Giant plant response rating (0 to 100 scale): 500 g ai/ha, postemergence, 0 is no effect, 100 is complete control; for Foxtail, Giant plant response rating: Postemergence, 125 g ai/ha, 0 to 100 scale (0 no effect, 100 complete control)
How it was run: as §1

[4] = system: galium (catchweed bedstraw, Galium aparine); assay: Test A postemergence, visual plant response rating; details: for Galium plant response rating (0 to 100 scale): 500 g ai/ha, postemergence, 0 is no effect, 100 is complete control; for Galium plant response rating: Postemergence, 125 g ai/ha, 0 to 100 scale (0 no effect, 100 complete control)
How it was run: as §1

[5] = system: wheat (Triticum aestivum); assay: Test A postemergence, visual plant response rating; details: for Wheat plant response rating (0 to 100 scale): 500 g ai/ha, postemergence, 0 is no effect, 100 is complete control; for Wheat plant response rating: Postemergence, 125 g ai/ha, 0 to 100 scale (0 no effect, 100 complete control)
How it was run: as §1

[6] = system: Italian ryegrass (Lolium multiflorum); assay: Test A postemergence, visual plant response rating; details: for Ryegrass, Italian plant response rating (0 to 100 scale): 500 g ai/ha, postemergence, 0 is no effect, 100 is complete control; for Ryegrass, Italian plant response rating: Postemergence, 125 g ai/ha, 0 to 100 scale (0 no effect, 100 complete control)
How it was run: as §1

corn (Zea mays) = assay: Test A postemergence, visual plant response rating; details: for Corn plant response rating (0 to 100 scale): 500 g ai/ha, postemergence, 0 is no effect, 100 is complete control; for Corn plant response rating: Postemergence, 125 g ai/ha, 0 to 100 scale (0 no effect, 100 complete control)
How it was run: as §1

[7] = system: blackgrass (Alopecurus myosuroides); assay: Test A postemergence, visual plant response rating; details: for Blackgrass plant response rating (0 to 100 scale): 500 g ai/ha, postemergence, 0 is no effect, 100 is complete control; for Blackgrass plant response rating: Postemergence, 125 g ai/ha, 0 to 100 scale (0 no effect, 100 complete control)
How it was run: as §1

[8] = system: barnyardgrass (Echinochloa crus-galli); assay: Test A postemergence, visual plant response rating; details: for Barnyardgrass plant response rating (0 to 100 scale): 500 g ai/ha, postemergence, 0 is no effect, 100 is complete control; for Barnyardgrass plant response rating: Postemergence, 125 g ai/ha, 0 to 100 scale (0 no effect, 100 complete control)
How it was run: as §1

[9] = system: pigweed (Amaranthus retroflexus); assay: Test A postemergence, visual plant response rating; details: for Pigweed plant response rating (0 to 100 scale): 500 g ai/ha, postemergence, 0 is no effect, 100 is complete control; for Pigweed plant response rating: Postemergence, 125 g ai/ha, 0 to 100 scale (0 no effect, 100 complete control)
How it was run: as §1

[10] = system: sedge, umbrella (small-flower umbrella sedge, Cyperus difformis); assay: Test B flooded paddy test, visual plant response rating; details: 250 g ai/ha, Flood, applied to paddy water, 2-leaf stage, evaluated after 13 to 15 days
How it was run: (§2)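 At the two-leaf stage, seedlings received compound applied to paddy water flooded 3 cm above soil, a level sustained until assessment. Greenhouse incubation lasted 13 to 15 days before visual comparison with control plants.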

rice (Oryza sativa) = assay: as above; details: 250 g ai/ha, Flood, applied to paddy water, 2-leaf stage, evaluated after 13 to 15 days
How it was run: as §2

[11] = system: barnyardgrass (Echinochloa crus-galli); assay: as above; details: 250 g ai/ha, Flood, applied to paddy water, 2-leaf stage, evaluated after 13 to 15 days
How it was run: as §2

[12] = system: ducksalad (Heteranhera limosa); assay: as above; details: 250 g ai/ha, Flood, applied to paddy water, 2-leaf stage, evaluated after 13 to 15 days
How it was run: as §2

[13] = system: ragweed (common ragweed, Ambrosia elatior); assay: Test A preemergence, visual plant response rating; details: for Ragweed plant response rating: 125 g ai/ha, preemergence, 0 to 100 scale, 0 no effect, 100 complete control; for Ragweed plant response rating (0 to 100 scale): 500 g ai/ha Preemergence, approx. 10 days
How it was run: as §1

kochia (Kochia scoparia) [14] = assay: Test A preemergence, visual plant response rating; details: for Kochia plant response rating: 125 g ai/ha, preemergence, 0 to 100 scale, 0 no effect, 100 complete control; for Kochia plant response rating (0 to 100 scale): 500 g ai/ha Preemergence, approx. 10 days
How it was run: as §1

[15] = system: foxtail, giant (giant foxtail, Setaria faberii); assay: Test A preemergence, visual plant response rating; details: for Foxtail, Giant plant response rating: 125 g ai/ha, preemergence, 0 to 100 scale, 0 no effect, 100 complete control; for Foxtail, Giant plant response rating (0 to 100 scale): 500 g ai/ha Preemergence, approx. 10 days
How it was run: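 Formulated in a non-phytotoxic solvent mixture including surfactant, each test chemical was sprayed onto the soil surface after sowing, or onto seedlings 2 to 10 cm high. Roughly 10 days later, plants were compared with untreated controls and rated for injury from 0 (no effect) to 100 (complete control).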

[16] = system: Italian ryegrass (Lolium multiflorum); assay: Test A preemergence, visual plant response rating; details: for Ryegrass, Italian plant response rating: 125 g ai/ha, preemergence, 0 to 100 scale, 0 no effect, 100 complete control; for Ryegrass, Italian plant response rating (0 to 100 scale): 500 g ai/ha Preemergence, approx. 10 days
How it was run: as §1

[17] = system: barnyardgrass (Echinochloa crus-galli); assay: Test A preemergence, visual plant response rating; details: for Barnyardgrass plant response rating: 125 g ai/ha, preemergence, 0 to 100 scale, 0 no effect, 100 complete control; for Barnyardgrass plant response rating (0 to 100 scale): 500 g ai/ha Preemergence, approx. 10 days
How it was run: as §1

[18] = system: pigweed (Amaranthus retroflexus); assay: Test A preemergence, visual plant response rating; details: for Pigweed plant response rating: 125 g ai/ha, preemergence, 0 to 100 scale, 0 no effect, 100 complete control; for Pigweed plant response rating (0 to 100 scale): 500 g ai/ha Preemergence, approx. 10 days
How it was run: as §1

Compound	Ragweed plant response rating (0 to 100 scale) [1]	Ragweed plant response rating [1]	Kochia plant response rating (0 to 100 scale) (kochia (Kochia scoparia) [2])	Kochia plant response rating (kochia (Kochia scoparia) [2])	Foxtail, Giant plant response rating (0 to 100 scale) [3]	Foxtail, Giant plant response rating [3]	Galium plant response rating (0 to 100 scale) [4]	Galium plant response rating [4]	Wheat plant response rating (0 to 100 scale) [5]	Wheat plant response rating [5]	Ryegrass, Italian plant response rating (0 to 100 scale) [6]	Ryegrass, Italian plant response rating [6]	Corn plant response rating (0 to 100 scale) (corn (Zea mays))	Corn plant response rating (corn (Zea mays))	Blackgrass plant response rating (0 to 100 scale) [7]	Blackgrass plant response rating [7]	Barnyardgrass plant response rating (0 to 100 scale) [8]	Barnyardgrass plant response rating [8]	Pigweed plant response rating (0 to 100 scale) [9]	Pigweed plant response rating [9]	other results
CO/N=C(/c1ccccc1C(C)C)c1c(O)c(C)nn(C)c1=O [Compound 93]	50	10	30	0	40	30	70	60	10	0	80	40	10	10	70	0	20	10	80	50	Plant response rating, Sedge, Umbrella (0 to 100 scale, 0 is no effect, 100 is complete control) [10]: 0; Plant response rating, Rice (0 to 100 scale, 0 is no effect, 100 is complete control) (rice (Oryza sativa)): 0; Plant response rating, Barnyardgrass (0 to 100 scale, 0 is no effect, 100 is complete control) [11]: 0; Plant response rating, Ducksalad (0 to 100 scale, 0 is no effect, 100 is complete control) [12]: 65; Ragweed plant response rating [13]: 0; Ragweed plant response rating (0 to 100 scale) [13]: 0; Kochia plant response rating (kochia (Kochia scoparia) [14]): 0; Kochia plant response rating (0 to 100 scale) (kochia (Kochia scoparia) [14]): 0; Foxtail, Giant plant response rating [15]: 10; Foxtail, Giant plant response rating (0 to 100 scale) [15]: 30; Ryegrass, Italian plant response rating [16]: 20; Ryegrass, Italian plant response rating (0 to 100 scale) [16]: 70; Barnyardgrass plant response rating [17]: 0; Barnyardgrass plant response rating (0 to 100 scale) [17]: 50; Pigweed plant response rating [18]: 0; Pigweed plant response rating (0 to 100 scale) [18]: 20
C=CCc1ccccc1C(=NOC)c1c(O)c(C)nn(C)c1=O [Compound 121]	70	40	60	40	60	20	90	60	40	30	90	60	10	0	70	30	70	0	70	50	Plant response rating, Sedge, Umbrella (0 to 100 scale, 0 is no effect, 100 is complete control) [10]: 0; Plant response rating, Rice (0 to 100 scale, 0 is no effect, 100 is complete control) (rice (Oryza sativa)): 0; Plant response rating, Barnyardgrass (0 to 100 scale, 0 is no effect, 100 is complete control) [11]: 0; Plant response rating, Ducksalad (0 to 100 scale, 0 is no effect, 100 is complete control) [12]: 0; Ragweed plant response rating [13]: 10; Ragweed plant response rating (0 to 100 scale) [13]: 50; Kochia plant response rating (kochia (Kochia scoparia) [14]): 0; Kochia plant response rating (0 to 100 scale) (kochia (Kochia scoparia) [14]): 30; Foxtail, Giant plant response rating [15]: 10; Foxtail, Giant plant response rating (0 to 100 scale) [15]: 80; Ryegrass, Italian plant response rating [16]: 50; Ryegrass, Italian plant response rating (0 to 100 scale) [16]: 100; Barnyardgrass plant response rating [17]: 0; Barnyardgrass plant response rating (0 to 100 scale) [17]: 20; Pigweed plant response rating [18]: 10; Pigweed plant response rating (0 to 100 scale) [18]: 90

From patent US20210045385A1, “PYRIDAZINONE-SUBSTITUTED KETOXIMES AS HERBICIDES” (FMC Corporation, priority 2018, published 2021)
